From patent US20240384350A1, “METHODS OF TREATING CANCER WITH KINASE INHIBITORS” (BOARD OF REGENTS, THE UNIVERSITY OF TEXAS SYSTEM, priority 2021, published 2024)

How the values were obtained:
Assay in all cases: Ba/F3 drug screening, Cell Titer Glo, IC50 Mut/WT
Type in all cases: cell-based
[1] = molecular target: T1, EGFR L858R/T790M/C797S (Homo sapiens, UniProt P00533, C797S/L858R/T790M); settings: T790M-like-3R, 72 hours
T1 construct: expressed in transfected cells; host or cells: Ba/F3
Procedure: Data represent the ratio of the IC50 value for a given TKI for cells with a T790M-like-3R EGFR mutation to the IC50 value for cells with wildtype EGFR.
(§1) Ba/F3 cell generation, drug screening, and IC50 approximations. Ba/F3 cells were obtained as a gift from Dr. Gordon Mills (MD Anderson Cancer Center), and maintained in RPMI (Sigma) containing 10% FBS, 1% penicillin/streptomycin, and 10 ng/ml recombinant mIL-3 (R&D Biosystems). To establish stable Ba/F3 cell lines, Ba/F3 cells were transduced with retroviruses containing mutant EGFR plasmids for 12-24 hours.
After 48-72 hours of transduction, 2 μg/ml puromycin (Invitrogen) was added to Ba/F3 cell lines in complete RPMI. To select for EGFR positive cell lines, cells were stained with PE-EGFR (Biolegend) and sorted by FACS. After sorting, EGFR positive cells were maintained in RPMI containing 10% FBS, 1% penicillin/streptomycin, and 1 ng/ml EGF to support cell viability. […] Shortly, cells were plated in 384-well plates (Greiner Bio-One) at 2000-3000 cells per well in technical triplicate. Seven different concentrations of TKIs or DMSO vehicle were added to reach a final volume of 40 μL per well. After 72 hours, 11 μL of Cell Titer Glo (Promega) was added to each well. Plates were incubated for a minimum of 10 minutes, and bioluminescence was determined using a FLUOstar OPTIMA plate reader (BMG LABTECH). Raw bioluminescence values were normalized to DMSO control treated cells, and values were plotted in GraphPad Prism. […] Drug screens were performed in technical triplicate on each plate and either duplicate or triplicate biological replicates. […] Statistical differences between groups were determined by ANOVA as described in the figure legends.

[2] = molecular target: T2, EGFR S768dupSVD V769M (Homo sapiens, UniProt P00533, INS768MDS/V769M); settings: Ex20, 72 hours
T2 construct: expressed in transfected cells; host or cells: Ba/F3 cells, retroviral pBabe-Puro vector (vector made by GeneScript from EGFR S768dupSVD, c.2305G > A)

[3] = molecular target: T3, EGFR R776C (Homo sapiens, UniProt P00533, R776C); settings: Ba/F3 cells, EGFR R776C (PACC), Mut/WT
T3 construct: host or cells: Ba/F3

[4] = molecular target: T4, EGFR L858R S784F (Homo sapiens, UniProt P00533, L858R/S784F); settings: Classical-Like, 72 hours
T4 construct: expressed in transfected cells; host or cells: Ba/F3 cells, retroviral pBabe-Puro vector (vector made by GeneScript from EGFR L858R)

[5] = molecular target: T5, EGFR L861R (Homo sapiens, UniProt P00533, L861R); settings: Classical-Like, 72 hours
T5 construct: expressed in transfected cells; host or cells: Ba/F3 cells, retroviral pBabe-Puro vector (vector made by GeneScript from EGFR WT)

[6] = molecular target: T6, EGFR Ex19del (Homo sapiens, UniProt P00533, DEL746-750); settings: Classical-Like, 72 hours
T6 construct: expressed in transfected cells; host or cells: Ba/F3 cells, retroviral pBabe-Puro vector

[7] = molecular target: T7, EGFR L858R L718Q (Homo sapiens, UniProt P00533, L718Q/L858R); settings: Ba/F3 cells, EGFR L858R L718Q (PACC), Mut/WT
T7 construct: host or cells: Ba/F3
Procedure: (§2) Data represent the ratio of the IC50 value for a given TKI for cells with a PACC EGFR mutation to the IC50 value for cells with wildtype EGFR.
as §1
(§3) After 48-72 hours of transduction, 2 μg/ml puromycin (Invitrogen) was added to Ba/F3 cell lines in complete RPMI. To select for EGFR positive cell lines, cells were stained with PE-EGFR (Biolegend) and sorted by FACS. After sorting, EGFR positive cells were maintained in RPMI containing 10% FBS, 1% penicillin/streptomycin, and 1 ng/ml EGF to support cell viability. Drug screening was performed as previously described^41,42. Shortly, cells were plated in 384-well plates (Greiner Bio-One) at 2000-3000 cells per well in technical triplicate. Seven different concentrations of TKIs or DMSO vehicle were added to reach a final volume of 40 μL per well. After 72 hours, 11 μL of Cell Titer Glo (Promega) was added to each well. Plates were incubated for a minimum of 10 minutes, and bioluminescence was determined using a FLUOstar OPTIMA plate reader (BMG LABTECH). Raw bioluminescence values were normalized to DMSO control treated cells, and values were plotted in GraphPad Prism. […] Drug screens were performed in technical triplicate on each plate and either duplicate or triplicate biological replicates.

[8] = molecular target: T8, EGFR Ex19del G796S (Homo sapiens, UniProt P00533, DEL746-750/G796S); settings: Ba/F3 cells, EGFR Ex19del G796S (PACC), Mut/WT
T8 construct: expressed in transfected cells; host or cells: Ba/F3

[9] = molecular target: T9, EGFR L858R T790M L718V (Homo sapiens, UniProt P00533, L718V/L858R/T790M); settings: T790M-like-3R, 72 hours
T9 construct: expressed in transfected cells; host or cells: Ba/F3

[10] = molecular target: T10, EGFR L858R/T790M (Homo sapiens, UniProt P00533, L858R/T790M); settings: T790M-like-3S, 72 hours
T10 construct: expressed in transfected cells; host or cells: Ba/F3

[11] = molecular target: T11, EGFR G719A T790M (Homo sapiens, UniProt P00533, G719A/T790M); settings: T790M-like-3S, 72 hours
T11 construct: expressed in transfected cells; host or cells: Ba/F3
Procedure: Data represent the ratio of the IC50 value for a given TKI for cells with a T790M-like-3S EGFR mutation to the IC50 value for cells with wildtype EGFR.
as §1, §3

[12] = molecular target: T12, EGFR A763insFQEA (Homo sapiens, UniProt P00533, INS763FQEA); settings: Classical-Like, 72 hours
T12 construct: expressed in transfected cells; host or cells: Ba/F3 cells, retroviral pBabe-Puro vector
Procedure: Data represent the ratio of the IC50 value for a given TKI for cells with a classical-like EGFR mutation to the IC50 value for cells with wildtype EGFR.
as §1
After 48-72 hours of transduction, 2 μg/ml puromycin (Invitrogen) was added to Ba/F3 cell lines in complete RPMI. To select for EGFR positive cell lines, cells were stained with PE-EGFR (Biolegend) and sorted by FACS. After sorting, EGFR positive cells were maintained in RPMI containing 10% FBS, 1% penicillin/streptomycin, and 1 ng/ml EGF to support cell viability. […] Shortly, cells were plated in 384-well plates (Greiner Bio-One) at 2000-3000 cells per well in technical triplicate. Seven different concentrations of TKIs or DMSO vehicle were added to reach a final volume of 40 μL per well. After 72 hours, 11 μL of Cell Titer Glo (Promega) was added to each well. Plates were incubated for a minimum of 10 minutes, and bioluminescence was determined using a FLUOstar OPTIMA plate reader (BMG LABTECH). Raw bioluminescence values were normalized to DMSO control treated cells, and values were plotted in GraphPad Prism. […] Drug screens were performed in technical triplicate on each plate and either duplicate or triplicate biological replicates.

[13] = molecular target: T13, EGFR E709_T710del insD (Homo sapiens, UniProt P00533, DEL709-709/T710D); settings: Ba/F3 cells, EGFR E709_T710del insD (PACC), Mut/WT
T13 construct: expressed in transfected cells; host or cells: Ba/F3

[14] = molecular target: T14, EGFR L858R (Homo sapiens, UniProt P00533, L858R); settings: Classical-Like, 72 hours
T14 construct: expressed in transfected cells; host or cells: Ba/F3 cells, retroviral pBabe-Puro vector

[15] = molecular target: T15, EGFR Ex19del T790M (Homo sapiens, UniProt P00533, DEL746-750/T790M); settings: T790M-like-3S, 72 hours
T15 construct: expressed in transfected cells; host or cells: Ba/F3

[16] = molecular target: T16, EGFR Ex19del T790M L718V (Homo sapiens, UniProt P00533, DEL746-750/L718V/T790M); settings: T790M-like-3S, 72 hours
T16 construct: expressed in transfected cells; host or cells: Ba/F3

[17] = molecular target: T17, EGFR G719A L861Q (Homo sapiens, UniProt P00533, G719A/L861Q); settings: Ba/F3 cells, EGFR G719A L861Q (PACC), Mut/WT
T17 construct: expressed in transfected cells; host or cells: Ba/F3

[18] = molecular target: T18, EGFR Ex19del T790M C797S (Homo sapiens, UniProt P00533, C797S/DEL746-750/T790M); settings: T790M-like-3R, 72 hours
T18 construct: expressed in transfected cells; host or cells: Ba/F3

[19] = molecular target: T19, EGFR L718Q T790M (Homo sapiens, UniProt P00533, L718Q/T790M); settings: T790M-like-3R, 72 hours
T19 construct: expressed in transfected cells; host or cells: Ba/F3

[20] = molecular target: T20, EGFR R776H (Homo sapiens, UniProt P00533, R776H); settings: Ba/F3 cells, EGFR R776H (PACC), Mut/WT
T20 construct: host or cells: Ba/F3
Procedure: as §2, §1, §3

[21] = molecular target: T21, EGFR L718Q (Homo sapiens, UniProt P00533, L718Q); settings: Ba/F3 cells, EGFR L718Q (PACC), Mut/WT
T21 construct: expressed in transfected cells; host or cells: Ba/F3
Procedure: as §2, §1, §3

[22] = molecular target: T22, EGFR S768I V774M (Homo sapiens, UniProt P00533, S768I/V774M); settings: Ba/F3 cells, EGFR S768I V774M (PACC), Mut/WT
T22 construct: host or cells: Ba/F3

[23] = molecular target: T23, EGFR Ex19del G724S (Homo sapiens, UniProt P00533, DEL746-750/G724S); settings: Ba/F3 cells, EGFR Ex19del G724S (PACC), Mut/WT
T23 construct: expressed in transfected cells; host or cells: Ba/F3
Procedure: as §2, §1, §3

[24] = system: EGFR I740dupIPVAK; settings: Ba/F3 cells, EGFR I740dupIPVAK (PACC), Mut/WT
Procedure: as §2, §1, §3

[25] = molecular target: T24, EGFR L833F (Homo sapiens, UniProt P00533, L833F); settings: Classical-Like, 72 hours
T24 construct: expressed in transfected cells; host or cells: Ba/F3 cells, retroviral pBabe-Puro vector

[26] = molecular target: T25, EGFR T725M (Homo sapiens, UniProt P00533, T725M); settings: Classical-Like, 72 hours
T25 construct: expressed in transfected cells; host or cells: Ba/F3 cells, retroviral pBabe-Puro vector (vector made by GeneScript from EGFR WT)

C=CC(=O)Nc1cc(Nc2ncc(C(=O)OC(C)C)c(-c3cn(C)c4ccccc34)n2)c(OC)cc1N(C)CCN(C)C [TAK-788 (mobocertinib), mobocertinib]
ratio of IC50 for cells with mutant EGFR to IC50 for cells with wildtype EGFR (Mut/WT) [1]: 134.7 | ratio of IC50 for cells with mutant EGFR to IC50 for cells with wildtype EGFR (Mut/WT) [2]: 0.5446 | ratio of the IC50 value for cells with a PACC EGFR mutation to the IC50 value for cells with wildtype EGFR [3]: 0.04235 | ratio of IC50 for cells with mutant EGFR to IC50 for cells with wildtype EGFR (Mut/WT) [4]: 0.001484 | ratio of IC50 for cells with mutant EGFR to IC50 for cells with wildtype EGFR (Mut/WT) [5]: 0.3102 | ratio of IC50 for cells with mutant EGFR to IC50 for cells with wildtype EGFR (Mut/WT) [6]: 0.02859 | ratio of the IC50 value for cells with a PACC EGFR mutation to the IC50 value for cells with wildtype EGFR [7]: 2.996 | ratio of the IC50 value for cells with a PACC EGFR mutation to the IC50 value for cells with wildtype EGFR [8]: 32.48 | ratio of IC50 for cells with mutant EGFR to IC50 for cells with wildtype EGFR (Mut/WT) [9]: 5.796 | ratio of IC50 for cells with mutant EGFR to IC50 for cells with wildtype EGFR (Mut/WT) [10]: 0.7565 | ratio of IC50 for cells with mutant EGFR to IC50 for cells with wildtype EGFR (Mut/WT) [11]: 0.4864 | ratio of IC50 for cells with mutant EGFR to IC50 for cells with wildtype EGFR (Mut/WT) [12]: 0.473 | ratio of the IC50 value for cells with a PACC EGFR mutation to the IC50 value for cells with wildtype EGFR [13]: 0.0198 | ratio of IC50 for cells with mutant EGFR to IC50 for cells with wildtype EGFR (Mut/WT) [14]: 0.0472 | ratio of IC50 for cells with mutant EGFR to IC50 for cells with wildtype EGFR (Mut/WT) [15]: 0.2391 | ratio of IC50 for cells with mutant EGFR to IC50 for cells with wildtype EGFR (Mut/WT) [16]: 3.032 | ratio of the IC50 value for cells with a PACC EGFR mutation to the IC50 value for cells with wildtype EGFR [17]: 1.066 | ratio of IC50 for cells with mutant EGFR to IC50 for cells with wildtype EGFR (Mut/WT) [18]: 117.8 | ratio of IC50 for cells with mutant EGFR to IC50 for cells with wildtype EGFR (Mut/WT) [19]: 43.09 | ratio of the IC50 value for cells with a PACC EGFR mutation to the IC50 value for cells with wildtype EGFR [20]: 2.853 | ratio of the IC50 value for cells with a PACC EGFR mutation to the IC50 value for cells with wildtype EGFR [21]: 16.38 | ratio of the IC50 value for cells with a PACC EGFR mutation to the IC50 value for cells with wildtype EGFR [22]: 1.227 | ratio of the IC50 value for cells with a PACC EGFR mutation to the IC50 value for cells with wildtype EGFR [23]: 3.682 | ratio of the IC50 value for cells with a PACC EGFR mutation to the IC50 value for cells with wildtype EGFR [24]: 7.185 | ratio of IC50 for cells with mutant EGFR to IC50 for cells with wildtype EGFR (Mut/WT) [25]: 1.233 | ratio of IC50 for cells with mutant EGFR to IC50 for cells with wildtype EGFR (Mut/WT) [26]: 1.082
